# Measurements reported in PMC10485906, “Development of a Dihydroquinoline–Pyrazoline GluN2C/2D-Selective Negative Allosteric Modulator of the N-Methyl-D-aspartate Receptor” (ACS Chemical Neuroscience, 2023).
# Values joined by “and” are separate entries in the source; they are usually repeats but may differ in a detail not shown here. Equal entries are not always repeated. Marks after values point to notes of the source that are not given here.
# Key:
# Plasma stability, mouse = type: in vitro ADME; conditions: for half-life at 3 μM / remaining at 120 min, 3 µM: male, BALB/C, mouse; for half-life at 3 μM: mouse plasma, incubation up to 120 min, read-out: plasma stability T1/2, mouse; for remaining at 120 min, 3 µM: plasma, over the assay time course
# Experimental: Human plasma (lithium heparin (LiHep) mixed, gender pooled, 0.2 μm filtered) and mouse plasma (BALB/C, LiHep mixed, male pooled, 0.2 μm filtered) were purchased from BioIVT. Procaine (Sigma-Aldrich) served as a positive control for both human and mouse plasma experiments. Test compounds and positive controls were initially dissolved in DMSO to make 10 mM stock solutions. The solutions of test and control compounds were then further diluted in 70% MeOH/H2O or 100% MeCN to 500 μM. Next, the human or mouse plasma (994 μL) was aliquoted into 1.5 mL Eppendorf tubes with duplicates (reactions A and B) being prepared for each compound. The plasma was then incubated at 37 °C for 10 min. Afterward, the reaction was initiated by the addition of the test compound (6 μL of 500 μM solution) and further incubated at 37 °C for the designated time course of the study. This procedure provided duplicate experiments with a final volume of 1000 μL (<0.6% organic solvent content) and a final test compound concentration of 3 μM. Aliquots (100 μL) were removed from each reaction mixture at 0, 15, 30, 60, and 120 min time intervals and quenched with 150 μL of cold ISTD solution (2 μM 7-ethoxy-d5-coumarin in MeOH or MeCN). Quenched aliquots were then centrifuged at 15,000 g for 30–45 min, and the resulting supernatants (∼70 μL) were withdrawn and placed in LC-MS vials to be analyzed by LC-MS/MS (Agilent G6460C QQQ MS coupled with an Infinity II 1260 HPLC). Each test compound was run in tandem with positive and negative control experiments for quality assurance. The positive control reaction was conducted at a final volume of 1000 μL for a single run at each time point. Finally, the negative control experiment was conducted with test compounds in DPBS (143 μL) and analyzed at the 120 min time point.
# For both LM and plasma assays, each data point was analyzed in triplicate using between blank washes to avoid carry over and to equilibrate the column for the subsequent runs. Averages of these triplicates for individual compounds at each time point were then normalized to the data at 0 min, representing 100% of the test compound remaining or 0% metabolism. Half-lives (t1/2) were calculated by plotting ln of % test compound remaining versus time and performing linear regression to determine slope. Slope = −k and t1/2 = 0.693/k for first-order kinetics (see Figures S5 and S6 for a representative example).
# GluN1/GluN2D = GluN1/GluN2D (Rattus norvegicus, UniProt Q62645); assay: Two-electrode voltage-clamp recordings, Xenopus laevis oocytes, GluN1/GluN2D; type: cell-based; design: GluN2B (NM_012574.1), GluN2C (NM_012575.3), and GluN2D (NM_022797.2) were provided by; expressed in transfected cells; host or cells: Xenopus laevis oocytes (cRNA injection); conditions: for Selectivity 2A IC50 / 2D IC50: GluN2D over GluN2A; for Selectivity 2B IC50 / 2D IC50: GluN2D over GluN2B; for I3 μM/Icontrol GluN2D: tested at 3 μM; for I3 μM/Icontrol GluN2D / I / I control GluN2D: 100 μM glutamate, 30 μM glycine; for I / I control GluN2D: tested at 10 μM (footnote b)
# Sequence of GluN1/GluN2D (Q62645 28-1323, other chains not shown): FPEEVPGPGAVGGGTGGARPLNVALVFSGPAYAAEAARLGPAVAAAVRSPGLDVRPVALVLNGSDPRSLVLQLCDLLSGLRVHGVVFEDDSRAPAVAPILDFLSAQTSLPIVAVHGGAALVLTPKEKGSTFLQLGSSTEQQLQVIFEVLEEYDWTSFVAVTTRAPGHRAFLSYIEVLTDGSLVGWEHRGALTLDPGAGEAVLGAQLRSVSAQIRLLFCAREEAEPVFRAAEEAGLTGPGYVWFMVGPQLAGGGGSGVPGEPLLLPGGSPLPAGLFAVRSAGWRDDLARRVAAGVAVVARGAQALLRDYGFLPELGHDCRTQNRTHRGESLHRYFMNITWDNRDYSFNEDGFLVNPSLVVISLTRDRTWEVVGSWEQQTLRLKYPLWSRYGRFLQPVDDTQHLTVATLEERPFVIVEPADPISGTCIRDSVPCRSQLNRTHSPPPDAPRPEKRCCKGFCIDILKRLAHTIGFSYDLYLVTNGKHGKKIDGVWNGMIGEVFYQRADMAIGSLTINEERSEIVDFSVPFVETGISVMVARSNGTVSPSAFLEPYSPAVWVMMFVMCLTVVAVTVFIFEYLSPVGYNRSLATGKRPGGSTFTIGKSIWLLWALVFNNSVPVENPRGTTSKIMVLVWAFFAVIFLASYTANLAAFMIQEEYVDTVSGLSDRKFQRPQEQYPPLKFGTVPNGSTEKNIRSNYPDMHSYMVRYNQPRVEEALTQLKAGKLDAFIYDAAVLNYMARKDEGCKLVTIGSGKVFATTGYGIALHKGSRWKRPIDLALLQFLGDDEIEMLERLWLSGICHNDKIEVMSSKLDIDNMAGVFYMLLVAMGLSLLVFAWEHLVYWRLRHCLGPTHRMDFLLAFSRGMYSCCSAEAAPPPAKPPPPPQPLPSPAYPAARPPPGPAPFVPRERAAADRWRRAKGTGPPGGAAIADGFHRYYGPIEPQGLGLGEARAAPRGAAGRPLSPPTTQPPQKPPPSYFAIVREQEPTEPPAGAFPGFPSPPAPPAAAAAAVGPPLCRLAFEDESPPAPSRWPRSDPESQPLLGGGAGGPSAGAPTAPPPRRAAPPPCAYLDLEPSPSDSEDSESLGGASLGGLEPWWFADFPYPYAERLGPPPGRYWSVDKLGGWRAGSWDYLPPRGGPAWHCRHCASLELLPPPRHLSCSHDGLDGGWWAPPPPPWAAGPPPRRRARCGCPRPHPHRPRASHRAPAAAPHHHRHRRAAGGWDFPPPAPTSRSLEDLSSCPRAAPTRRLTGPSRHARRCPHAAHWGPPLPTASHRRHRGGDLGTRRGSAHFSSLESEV
# Experimental: All target compounds were evaluated for NMDAR antagonism using two-electrode voltage-clamp recordings from Xenopus laevis oocytes coexpressing recombinant GluN1 and GluN2A-D subunits (Table 1).[32],[42],[33] All analogues were assessed as either a racemic (2b, 2e–2r) or diastereomeric (2d) mixture to simplify purification and streamline in vitro analysis. […] Moreover, as illustrated by the significant loss of NMDAR activity observed with nitrile 2e, the DQP allosteric site necessitated an H-bond donor/acceptor relationship at the carboxylate position. […] The loss of NMDAR activity observed with the trifluoro analogue 2j (Table S1) reinforced the necessity for an H-bond donor/acceptor relationship to maintain allosteric binding and established that fluorine substitution alone is ineffective. […] A single methyl substitution of the amide in compound 2q improved selectivity against GluN2A and had similar potency as 2a, whereas dual methyl substitution reduced potency (2r). We expect that this is likely due to the ability of the […] of the amide to accept hydrogen bonds while the amide can readily donate a proton.
# Unfertilized Xenopus laevis oocytes were obtained from Ecocyte (Austin, TX), or ovaries were purchased from Xenopus 1 (Dexter, MI) and oocytes prepared as previously described.[42],[47] Two-electrode voltage-clamp recordings were performed on oocytes expressing recombinant rat GluN1/GluN2A, GluN1/GluN2B, GluN1/GluN2C, or GluN1/GluN2D. cDNAs for rat GluN1-1a (referred to as GluN1; NCBI Reference Sequence NM_017010.2), GluN2A (NM_012573.4), GluN2B (NM_012574.1), GluN2C (NM_012575.3), and GluN2D (NM_022797.2) were provided by Dr. S. Heinemann from the Salk Institute, Dr. S. Nakanishi from Kyoto University, and Dr. P. Seeburg from the University of Heidelberg. Oocyte isolation, cRNA synthesis, and cRNA injections were performed as previously described.[32],[33],[47] Briefly, Xenopus laevis oocytes were injected with 5–10 ng of cRNA in RNase-free water with the GluN1:GluN2 ratio ranging from 1:1 to 1:5. Oocytes were incubated at 15–19 °C in Barth’s solution consisting of (in mM) 88 NaCl, 1 KCl, 2.4 NaHCO3, 10 HEPES, 0.82 MgSO4, 0.33 Ca(NO3)2, and 0.41 CaCl2 supplemented with 100 μg/mL gentamycin, 40 μg/mL streptomycin, and 50 μg/mL penicillin. Recordings were performed 2–4 days after injection with extracellular recording solution containing (in mM) 90 NaCl, 1 KCl, 10 HEPES, 0.5 BaCl2, and 0.01 EDTA at pH 7.4 adjusted with NaOH. To prevent a gradual increase in current response over the course of the experiment, some oocytes expressing GluN1/GluN2A were injected with 20–50 nL of 2–50 mM K-BAPTA. Concentration–response curves for test compounds were generated by applying a maximally effective concentration of glutamate (100 μM) and glycine (30 μM), followed by glutamate and glycine with variable concentrations of test compounds up to 30 μM. The test compounds were prepared as 20 mM stock solutions in DMSO and diluted to the final concentration in recording solution. The DMSO content was 0.05–0.5% (v/v). […] Methods for off-target analysis are given in the Supporting Information.
# Confidence intervals were determined for the log(IC50). The time course of relaxation during inhibitor application or deactivation following rapid removal of NMDA or glutamate was fitted by the equation [drawing 5] 2
SMILES,"half-life at 3 μM (Plasma stability, mouse) [min]",Selectivity 2A IC50 / 2D IC50 (GluN1/GluN2D) [fold],Selectivity 2B IC50 / 2D IC50 (GluN1/GluN2D) [fold],also measured
O=C(O)CCC(=O)N1N=C(c2c(-c3ccc(Cl)cc3)c3ccccc3[nH]c2=O)CC1c1ccc(Cl)cc1 (stereo not drawn) [2a],> 120,,,"remaining at 120 min, 3 µM (Plasma stability, mouse): > 95%"
O=C(O)CC(F)(F)C(=O)N1N=C(c2c(-c3ccc(Cl)cc3)c3ccccc3[nH]c2=O)CC1c1ccc(Cl)cc1 (stereo not drawn) [2i],> 120,43,123,"I3 μM/Icontrol GluN2D (GluN1/GluN2D; mean ± SEM): 12 ± 1.8% and 12 ± 1.8 ^b (2,16) %; I3 μM/Icontrol GluN2D (GluN1/GluN2D; mean ± SEM, listed as racemic 2i): 12 ± 1.8 (2, 16) %; remaining at 120 min, 3 µM (Plasma stability, mouse): > 95%"
NC(=O)CC(F)(F)C(=O)N1N=C(c2c(-c3ccc(Cl)cc3)c3ccccc3[nH]c2=O)CC1c1ccc(Cl)cc1 (stereo not drawn) [2k],> 120,24,13,"I3 μM/Icontrol GluN2D (GluN1/GluN2D; mean ± SEM): 16 ± 2.3 ^b (3,17) %; metabolized in mouse plasma (% of prodrug) (Plasma stability, mouse; after 2 h): 42%"
CCOC(=O)CC(F)(F)C(=O)N1N=C(c2c(-c3ccc(Cl)cc3)c3ccccc3[nH]c2=O)CC1c1ccc(Cl)cc1 (stereo not drawn) [2l],4.2,,,
CC(C)OC(=O)CC(F)(F)C(=O)N1N=C(c2c(-c3ccc(Cl)cc3)c3ccccc3[nH]c2=O)CC1c1ccc(Cl)cc1 (stereo not drawn) [2m],37,,,
O=C(CC(F)(F)C(=O)N1N=C(c2c(-c3ccc(Cl)cc3)c3ccccc3[nH]c2=O)CC1c1ccc(Cl)cc1)OCC1CC1 (stereo not drawn) [2n],1.3,,,
CC(C)(C)COC(=O)CC(F)(F)C(=O)N1N=C(c2c(-c3ccc(Cl)cc3)c3ccccc3[nH]c2=O)CC1c1ccc(Cl)cc1 (stereo not drawn) [2o],4,,,I / I control GluN2D (GluN1/GluN2D; mean ± SEM): 82 ± 0.7%
O=C(CC(F)(F)C(=O)N1N=C(c2c(-c3ccc(Cl)cc3)c3ccccc3[nH]c2=O)CC1c1ccc(Cl)cc1)OCc1ccccc1 (stereo not drawn) [2p],1.4,,,
CNC(=O)CC(F)(F)C(=O)N1N=C(c2c(-c3ccc(Cl)cc3)c3ccccc3[nH]c2=O)CC1c1ccc(Cl)cc1 (stereo not drawn) [2q],> 120,90,49,"I / I control GluN2D (GluN1/GluN2D; mean ± SEM): 12 ± 1.5 ^b (3, 18) %"
CN(C)C(=O)CC(F)(F)C(=O)N1N=C(c2c(-c3ccc(Cl)cc3)c3ccccc3[nH]c2=O)CC1c1ccc(Cl)cc1 (stereo not drawn) [2r],> 120,,,"I / I control GluN2D (GluN1/GluN2D; mean ± SEM): 19 ± 1.6 ^b (3,14) %"
O=C(O)CC(F)(F)C(=O)N1N=C(c2c(-c3ccc(Cl)cc3)c3ccccc3[nH]c2=O)C[C@H]1c1ccc(Cl)cc1 [(S)-(−)-2i],,134,457,"% control GluN1/GluN2D (GluN1/GluN2D; 1 µM compound, 100 µM glutamate, 30 µM glycine, mean ± SEM): 4.3 ± 0.73%; fold more potent than (S)-2a (GluN1/GluN2D; abstract): 5 fold; I3 μM/Icontrol GluN2D (GluN1/GluN2D; mean ± SEM): 3.8 ± 0.60 (4, 25) %"
